Values after ≈ are worked out from the molar mass of the structure shown. Active and inactive are the calls of the source. No cut-off for these calls is given here.
Legend:
Type in all cases: functional
[1] = tested on: Staphylococcus aureus; test: Antibacterial activity against methicillin resistant Staphylococcus aureus 18-2
[2] = tested on: Enterococcus faecalis; test: Antibacterial activity against Vanomycin-resistant Enterococcus faecalis ATCC 51575
[3] = tested on: Enterococcus faecium; test: Antibacterial activity against Vanomycin-resistant Enterococcus faecium 15-6
[4] = tested on: Staphylococcus aureus; test: Antibacterial activity against methicillin resistant Staphylococcus aureus 20-11
[5] = tested on: Staphylococcus aureus; test: Antibacterial activity against methicillin sensitive Staphylococcus aureus 15
[6] = tested on: Staphylococcus aureus; test: Antibacterial activity against methicillin sensitive Staphylococcus aureus ATCC 33591
[7] = tested on: Staphylococcus aureus; test: Antibacterial activity against vancomycin intermediate and methicillin resistant Staphylococcus aureus ATCC 700699
[8] = tested on: Staphylococcus epidermidis; test: Antibacterial activity against methicillin sensitive Staphylococcus epidermidis 17-13
[9] = tested on: Enterococcus faecalis; test: Antibacterial activity against Vanomycin-resistant Enterococcus faecalis ATCC 51299
[10] = tested on: Enterococcus faecium; test: Antibacterial activity against Vanomycin-resistant Enterococcus faecium ATCC 51559
[11] = tested on: Staphylococcus epidermidis; test: Antibacterial activity against methicillin sensitive Staphylococcus epidermidis ATCC 12228
[12] = tested on: Staphylococcus aureus; test: Antibacterial activity against vancomycin intermediate and methicillin resistant Staphylococcus aureus ATCC 700698
[13] = tested on: Staphylococcus aureus; test: Antibacterial activity against methicillin sensitive Staphylococcus aureus ATCC 29213
[14] = tested on: Staphylococcus aureus; test: Antibacterial activity against methicillin sensitive Staphylococcus aureus 20-12
[15] = tested on: Enterococcus faecium; test: Antibacterial activity against Vanomycin-resistant Enterococcus faecium ATCC 700221
[16] = tested on: Staphylococcus aureus; test: Antibacterial activity against methicillin resistant Staphylococcus aureus ATCC 43300
[17] = tested on: Staphylococcus epidermidis; test: Antibacterial activity against methicillin resistant Staphylococcus epidermidis 19-1
[18] = tested on: Staphylococcus epidermidis; test: Antibacterial activity against methicillin resistant Staphylococcus epidermidis 19-2

Row | Compound | MIC [1] | MIC [2] | MIC [3] [µM] | MIC [4] | MIC [5] | MIC [6] | MIC [7] | MIC [8] | MIC [9] | MIC [10] [µM] | MIC [11] | MIC [12] | MIC [13] | MIC [14] | MIC [15] [µM] | MIC [16] | MIC [17] | MIC [18]
1 | O=C(Nc1ccc(C(F)(F)F)cc1)Nc1ccc(Cl)c(C(F)(F)F)c1 | 10.4 µM (≈ 4 µg/mL) | 20.9 µM (≈ 8 µg/mL) | 20.9 (≈ 8 µg/mL) | 20.9 µM (≈ 8 µg/mL) | 10.4 µM (≈ 4 µg/mL) | 10.4 µM (≈ 4 µg/mL) | 10.4 µM (≈ 4 µg/mL) | 20.9 µM (≈ 8 µg/mL) | 41.8 µM (≈ 16 µg/mL) | 41.8 (≈ 16 µg/mL) | 20.9 µM (≈ 8 µg/mL) | 20.9 µM (≈ 8 µg/mL) | 20.9 µM (≈ 8 µg/mL) | 20.9 µM (≈ 8 µg/mL) | 41.8 (≈ 16 µg/mL) | 20.9 µM (≈ 8 µg/mL) | 10.4 µM (≈ 4 µg/mL) | 10.4 µM (≈ 4 µg/mL)
2 | O=C(Nc1ccc(Cl)c(F)c1)Nc1ccc(Cl)c(C(F)(F)F)c1 | 2.72 µM (≈ 0.999 µg/mL) | 10.9 µM (≈ 4 µg/mL) | 10.9 (≈ 4 µg/mL) | 2.72 µM (≈ 0.999 µg/mL) | 2.72 µM (≈ 0.999 µg/mL) | 1.36 µM (≈ 0.499 µg/mL) | 1.36 µM (≈ 0.499 µg/mL) | 2.72 µM (≈ 0.999 µg/mL) | 21.8 µM (≈ 8 µg/mL) | 10.9 (≈ 4 µg/mL) | 2.72 µM (≈ 0.999 µg/mL) | 2.72 µM (≈ 0.999 µg/mL) | 2.72 µM (≈ 0.999 µg/mL) | 2.72 µM (≈ 0.999 µg/mL) | 5.45 (≈ 2 µg/mL) | 2.72 µM (≈ 0.999 µg/mL) | 1.36 µM (≈ 0.499 µg/mL) | 1.36 µM (≈ 0.499 µg/mL)
3 | CNC(=O)c1cc(Oc2ccc(N3CCN(c4ccc(Cl)c(C(F)(F)F)c4)C3=O)cc2)ccn1 |  |  |  | inactive | inactive |  | inactive | inactive |  |  | inactive | inactive | inactive |  |  | inactive | inactive | inactive
4 | CNC(=O)c1cc(Oc2ccc(NC(=O)N3CCN(c4ccc(Cl)c(C(F)(F)F)c4)C3=O)cc2)ccn1 | inactive |  |  | inactive | inactive | inactive | inactive | inactive |  |  | inactive | inactive | inactive | inactive |  | inactive | inactive | inactive
5 | CN(C(=O)Nc1cccc(Cl)c1F)c1ccc(Cl)c(C(F)(F)F)c1 | inactive |  |  | inactive | inactive | inactive | inactive | inactive |  |  | inactive | inactive | inactive | inactive |  | inactive | inactive | inactive
6 | O=C1N(c2ccc(O)cc2)CCN1c1ccc(Cl)c(C(F)(F)F)c1 |  |  |  | inactive | inactive |  | inactive | inactive |  |  | inactive | inactive | inactive |  |  | inactive | inactive | inactive
7 | CN(C(=O)Nc1ccc(Cl)c(C(F)(F)F)c1)c1cccc(Cl)c1F | inactive |  |  | inactive | inactive | inactive | inactive | inactive |  |  | inactive | inactive | inactive | inactive |  | inactive | inactive | inactive
8 | O=C(Nc1ccc(OC(F)F)cc1)Nc1ccc(Cl)c(C(F)(F)F)c1 | 5.25 µM (≈ 2 µg/mL) | inactive | 21 (≈ 8 µg/mL) | 0.66 µM (≈ 0.251 µg/mL) | 0.66 µM (≈ 0.251 µg/mL) | 10.5 µM (≈ 4 µg/mL) | 0.66 µM (≈ 0.251 µg/mL) | 2.63 µM (≈ 1 µg/mL) | inactive | 21 (≈ 8 µg/mL) | 10.5 µM (≈ 4 µg/mL) | 1.31 µM (≈ 0.499 µg/mL) | 10.5 µM (≈ 4 µg/mL) | 10.5 µM (≈ 4 µg/mL) | 21 (≈ 8 µg/mL) | 10.5 µM (≈ 4 µg/mL) | 5.25 µM (≈ 2 µg/mL) | 10.5 µM (≈ 4 µg/mL)
9 | CNC(=O)c1cc(Oc2ccc(NC(=O)Nc3cc(C(F)(F)F)ccc3OC)cc2)ccn1 |  |  |  | inactive | inactive |  | inactive | inactive |  |  | inactive | inactive | inactive |  |  | inactive | inactive | inactive
10 | CNC(=O)c1cc(Oc2ccc(NC(=O)Nc3cccc(C(F)(F)F)c3)cc2)ccn1 |  |  |  | inactive | 149 µM (≈ 64 µg/mL) |  | inactive | inactive |  |  | 149 µM (≈ 64 µg/mL) | inactive | inactive |  |  | inactive | 149 µM (≈ 64 µg/mL) | inactive
11 | O=C(Nc1ccc(Cl)c(C(F)(F)F)c1)Nc1cc(F)c(F)cc1Cl | 1.3 µM (≈ 0.501 µg/mL) | 10.4 µM (≈ 4 µg/mL) | 2.6 (≈ 1 µg/mL) | 1.3 µM (≈ 0.501 µg/mL) | 1.3 µM (≈ 0.501 µg/mL) | 0.65 µM (≈ 0.25 µg/mL) | 0.65 µM (≈ 0.25 µg/mL) | 0.65 µM (≈ 0.25 µg/mL) | 10.4 µM (≈ 4 µg/mL) | 5.19 (≈ 2 µg/mL) | 1.3 µM (≈ 0.501 µg/mL) | 1.3 µM (≈ 0.501 µg/mL) | 1.3 µM (≈ 0.501 µg/mL) | 1.3 µM (≈ 0.501 µg/mL) | 5.19 (≈ 2 µg/mL) | 1.3 µM (≈ 0.501 µg/mL) | 1.3 µM (≈ 0.501 µg/mL) | 0.65 µM (≈ 0.25 µg/mL)
12 | C[C@H]1COc2c(N3CCN(C)CC3)c(F)cc3c(=O)c(C(=O)O)cn1c23 [LEVOFLOXACIN] | 177 µM (≈ 64 µg/mL) | 2.77 µM (≈ 1 µg/mL) | 177 (≈ 64 µg/mL) | 1.38 µM (≈ 0.499 µg/mL) | 0.69 µM (≈ 0.249 µg/mL) | 0.69 µM (≈ 0.249 µg/mL) | 22.1 µM (≈ 8 µg/mL) | 0.69 µM (≈ 0.249 µg/mL) | 1.38 µM (≈ 0.499 µg/mL) | 88.5 (≈ 32 µg/mL) | 0.69 µM (≈ 0.249 µg/mL) | 22.1 µM (≈ 8 µg/mL) | 0.69 µM (≈ 0.249 µg/mL) | 1.38 µM (≈ 0.499 µg/mL) | 177 (≈ 64 µg/mL) | 1.38 µM (≈ 0.499 µg/mL) | 11.1 µM (≈ 4 µg/mL) | 11.1 µM (≈ 4 µg/mL)
13 | O=C(Nc1ccc(Cl)c(C(F)(F)F)c1)Nc1cc(Cl)c(F)cc1F | 2.6 µM (≈ 1 µg/mL) | 10.4 µM (≈ 4 µg/mL) | 5.19 (≈ 2 µg/mL) | 2.6 µM (≈ 1 µg/mL) | 1.3 µM (≈ 0.501 µg/mL) | 1.3 µM (≈ 0.501 µg/mL) | 2.6 µM (≈ 1 µg/mL) | 2.6 µM (≈ 1 µg/mL) | 20.8 µM (≈ 8 µg/mL) | 5.19 (≈ 2 µg/mL) | 2.6 µM (≈ 1 µg/mL) | 2.6 µM (≈ 1 µg/mL) | 2.6 µM (≈ 1 µg/mL) | 2.6 µM (≈ 1 µg/mL) | 5.19 (≈ 2 µg/mL) | 2.6 µM (≈ 1 µg/mL) | 2.6 µM (≈ 1 µg/mL) | 1.3 µM (≈ 0.501 µg/mL)
14 | O=C(Nc1ccc2c(c1)OCO2)Nc1ccc(Cl)c(C(F)(F)F)c1 |  |  |  | 44.6 µM (≈ 16 µg/mL) | 22.3 µM (≈ 8 µg/mL) |  | 22.3 µM (≈ 8 µg/mL) | 22.3 µM (≈ 8 µg/mL) |  |  | 22.3 µM (≈ 8 µg/mL) | 44.6 µM (≈ 16 µg/mL) | 44.6 µM (≈ 16 µg/mL) |  |  | 357 µM (≈ 128 µg/mL) | 22.3 µM (≈ 8 µg/mL) | 22.3 µM (≈ 8 µg/mL)
15 | COc1ccc(NC(=O)Nc2ccc(Cl)c(C(F)(F)F)c2)cc1 |  |  |  | inactive | inactive |  | inactive | inactive |  |  | inactive | inactive | inactive |  |  | inactive | inactive | inactive
16 | CNC(=O)c1cc(Oc2ccc(NC(=O)Nc3cc(C(F)(F)F)ccc3Cl)cc2)ccn1 |  |  |  | inactive | inactive |  | inactive | inactive |  |  | inactive | inactive | inactive |  |  | inactive | inactive | inactive

Reference: ChEMBL document CHEMBL5223117, “Synthesis and biological evaluation of novel N, N'-diarylurea derivatives as potent antibacterial agents against MRSA” (Bioorg Med Chem Lett, 2022)
